For data set [1], the target named is Cyclin-dependent kinase 1/cyclin B1 (Homo sapiens) (UniProt P06493+P14635). In words: Inhibition of human recombinant full-length CDK1/CyclinB expressed in Sf21 insect cells using Histone H1 as substrate at 1 uM incubated for 40 mins in presence of [gamma32P]-ATP by scintillation counting method relative to control.
The nature of data set [2]: Volume of distribution at steady state in mouse at […], iv formulated as solution. Type of data set: ADME, organism-based. The note with it: in vivo, read-out: Vdss.
A short description of data set [3]: Drug metabolism in human liver microsome assessed as (1S,3R)-3-acetamido-N-(5-chloro-4-(7-hydroxy-4,5,6,7-tetrahydropyrazolo[1,5-a]pyridin-3-yl)pyridin-2-yl)cyclohexanecarboxamide formation at 10 uM measured after 1 hr in presence of NADPH by LC-UV-MS analysis. Type of data set: ADME. The note with it: microsomes. On the technique in general: Liver microsomes are a subcellular fraction often used to study metabolism.

Data set [4] in a line: Clearance in mouse plasma at […], iv formulated as solution. Type of data set: ADME, organism-based. The note with it: dose 4.8 µmol/kg.
Data set [5] concerns the target CDK9/cyclin T1 (Homo sapiens, UniProt O60563+P50750). In words: Binding affinity to human CDK9/CyclinT assessed as dissociation rate constant by surface plasmon resonance analysis. Type of data set: protein-complex assay. On the technique in general: SPR reads the build-up and loss of mass on a sensor chip optically.
For data set [6], the species on record is Homo sapiens. In words: Selectivity ratio of IC50 for CDK4 (unknown origin) in presence of 5 mM ATP to IC50 for Inhibition of recombinant full length human N-terminal GST-fused CDK9 (1 to 372 residues)/His-tagged CyclinT1 (1 to 726 residues) expressed in baculovirus infected insect cells.
Data set [7] is described as follows: Drug metabolism in human liver microsomes assessed as (1S,3R)-3-acetamido-N-(5-fluoro-4-(6-hydroxy-5,5-dimethyl-5,6-dihydro-4H-pyrrolo[1,2-b]pyrazol-3-yl)pyridin-2-yl)cyclohexanecarboxamide formation at 10 uM measured after 1 hr in presence of NADPH by LC-UV-MS analysis. Type of data set: ADME, Microsome.
Data set [8] in a line: Drug metabolism in human liver microsomes assessed as 3-(4-(2-((1S,3R)-3-acetamidocyclohexanecarboxamido)-5-fluoropyridin-4-yl)-1H-pyrazol-5-yl)-2,2-dimethylpropanoic acid formation at 10 uM measured after 1 hr in presence of NADPH by LC-UV-MS analysis. Type of data set: ADME, Microsome.
Data set [9] can be described thus: Thermodynamic solubility of compound in pH 4 0.1 M acetate buffer using crystalline form of sample. The note with it: read-out: Therm_solubility. Type of data set: physicochemical.
A short description of data set [10]: Half-life in Beagle dog at […], iv administered over 0.25 hrs formulated as solution in DMSO/Captisol. Type of data set: ADME, organism-based, Canis lupus familiaris. The note with it: in vivo, dose 0.24 µmol/kg.
Data set [11] is described as follows: Thermodynamic solubility of compound in pH 7.4 PBS buffer using crystalline form of sample. Type of data set: physicochemical. The note with it: read-out: Therm_solubility.
The species entered for data set [12] is Homo sapiens. In words: Selectivity ratio of IC50 for CDK3 (unknown origin) in presence of 5 mM ATP to IC50 for Inhibition of recombinant full length human N-terminal GST-fused CDK9 (1 to 372 residues)/His-tagged CyclinT1 (1 to 726 residues) expressed in baculovirus infected insect cells.
The subject of data set [13] is NOMO-1. Nature of the data set: Antitumor activity against human NOMO1 cells xenografted in CB17 SCID mouse assessed as tumor growth inhibition at 5 mg/kg, ip BID administered at 2 hrs dosing interval with 2 days on and 5 days off dosing schedule measured 12 days post initial dose. Type of data set: functional. The note with it: NOMO-1, ip, 288 h, time 12 day, read-out: TGI. A general note: Xenograft models place foreign cells or tissue in a host animal.

Data set [14] deals with Mitogen-activated protein kinase 8 (Homo sapiens, UniProt P45983). In words: Inhibition of JNK1 (unknown origin) in presence of 5 mM ATP.
Sequence of Mitogen-activated protein kinase 8 (P45983 whole entry): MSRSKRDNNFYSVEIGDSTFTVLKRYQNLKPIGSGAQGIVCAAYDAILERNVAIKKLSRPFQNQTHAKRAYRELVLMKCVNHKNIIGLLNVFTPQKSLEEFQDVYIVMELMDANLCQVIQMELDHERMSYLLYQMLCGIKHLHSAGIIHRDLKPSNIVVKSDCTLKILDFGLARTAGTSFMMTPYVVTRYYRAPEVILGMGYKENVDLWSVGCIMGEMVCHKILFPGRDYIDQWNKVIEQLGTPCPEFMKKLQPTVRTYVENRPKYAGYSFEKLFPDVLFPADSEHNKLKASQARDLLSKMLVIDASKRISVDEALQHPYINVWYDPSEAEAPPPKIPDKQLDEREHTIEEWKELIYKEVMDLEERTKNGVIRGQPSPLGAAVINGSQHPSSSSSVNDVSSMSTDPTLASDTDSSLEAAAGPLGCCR
The target in data set [15] is Cyclin-dependent kinase 9 (Mus musculus) (UniProt Q99J95). Nature of the data set: In-vivo inhibition of CDK9 in mouse xenografted with human MV4-11 cells assessed as reduction in Mcl-1 at 5 to 15 mg/kg, ip BID administered at 2 hrs dose interval with 2 days on and 5 days off dosing schedule by Western blot analysis. The note with it: dose 5-15 mg/kg. Type of data set: functional, organism-based.
Sequence of Cyclin-dependent kinase 9 (Mus musculus) (Q99J95 whole entry): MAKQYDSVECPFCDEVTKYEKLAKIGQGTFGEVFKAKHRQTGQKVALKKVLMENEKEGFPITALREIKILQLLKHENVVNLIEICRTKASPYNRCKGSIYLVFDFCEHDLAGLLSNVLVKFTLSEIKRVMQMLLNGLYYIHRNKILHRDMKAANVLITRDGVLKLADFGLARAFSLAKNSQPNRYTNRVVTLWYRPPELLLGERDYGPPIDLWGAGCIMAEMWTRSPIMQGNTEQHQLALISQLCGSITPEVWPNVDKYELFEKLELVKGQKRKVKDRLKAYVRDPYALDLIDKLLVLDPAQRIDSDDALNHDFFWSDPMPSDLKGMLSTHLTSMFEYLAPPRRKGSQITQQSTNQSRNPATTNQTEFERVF

Data set [16] is described as follows: Drug metabolism in human liver microsomes assessed as (1S,3R)-3-acetamido-N-(5-chloro-4-(5-(3-hydroxy-2,2-dimethylpropyl)-1H-pyrazol-4-yl)pyridin-2-yl)cyclohexanecarboxamide formation at 10 uM measured after 1 hr in presence of NADPH by LC-UV-MS analysis. Type of data set: ADME, Microsome.
The nature of data set [17]: Volume of distribution at steady state in cynomolgus monkey at 0.46 umol/kg, iv administered over 0.25 hrs formulated as solution in DMA/PEG400/Tween80. Type of data set: ADME, organism-based, Macaca fascicularis. The note with it: in vivo, dose 0.46 µmol/kg, read-out: Vdss.
Data set [18] is described as follows: Clearance in cynomolgus monkey plasma at 0.46 umol/kg, iv administered over 0.25 hrs formulated as solution in DMA/PEG400/Tween80. Type of data set: ADME, organism-based, Macaca fascicularis. The note with it: dose 0.46 µmol/kg.
Data set [19] addresses Dual specificity tyrosine-phosphorylation-regulated kinase 1A (Homo sapiens) (UniProt Q13627). In words: Inhibition of human recombinant full length GST-tagged DYRK1A expressed in baculovirus infected cells at 0.1 uM incubated for 60 mins by TR-FRET based LanthaScreen Eu kinase binding assay relative to control.
Data set [20] has as its target Mitogen-activated protein kinase kinase kinase kinase 4 (Homo sapiens) (UniProt O95819). In words: Inhibition of recombinant human GST-tagged MAP4K4 catalytic domain expressed in baculovirus expression system at 1 uM by Lanthascreen assay relative to control. The note with it: time 60.0 min.
Data set [21] deals with Dual specificity tyrosine-phosphorylation-regulated kinase 2 (Homo sapiens, UniProt Q92630). Nature of the data set: Inhibition of DYRK2 (unknown origin) in presence of 5 mM ATP.
Data set [22] deals with T1, Dual specificity tyrosine-phosphorylation-regulated kinase 2 (Homo sapiens) (UniProt Q92630).
T1 sequence (whole entry): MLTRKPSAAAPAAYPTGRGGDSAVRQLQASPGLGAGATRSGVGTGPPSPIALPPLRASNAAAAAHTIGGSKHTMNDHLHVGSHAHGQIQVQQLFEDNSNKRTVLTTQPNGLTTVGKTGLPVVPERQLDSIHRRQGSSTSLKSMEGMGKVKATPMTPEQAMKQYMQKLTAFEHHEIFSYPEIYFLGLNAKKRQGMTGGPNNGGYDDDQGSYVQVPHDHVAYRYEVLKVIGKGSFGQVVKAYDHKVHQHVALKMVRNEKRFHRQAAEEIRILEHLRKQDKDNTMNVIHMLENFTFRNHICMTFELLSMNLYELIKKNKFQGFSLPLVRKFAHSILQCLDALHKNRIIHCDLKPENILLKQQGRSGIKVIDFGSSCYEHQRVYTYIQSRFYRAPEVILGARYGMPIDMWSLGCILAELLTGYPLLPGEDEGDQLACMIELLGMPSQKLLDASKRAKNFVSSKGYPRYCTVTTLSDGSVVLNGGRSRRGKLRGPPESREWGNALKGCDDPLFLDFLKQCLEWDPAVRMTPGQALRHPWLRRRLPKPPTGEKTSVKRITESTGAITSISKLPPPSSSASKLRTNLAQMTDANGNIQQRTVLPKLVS
Nature of the data set: Inhibition of human recombinant full length N-terminal GST-tagged DYRK2 expressed in Escherichia coli at 0.1 uM incubated for 60 mins by TR-FRET based LanthaScreen Eu kinase binding assay relative to control.

Molecules are shown by their SMILES. Values after ≈ are worked out from the molar mass of the structure shown. Active and inactive are the calls of the source.

Sequence of Cyclin-dependent kinase 1/cyclin B1 (Homo sapiens) (P06493 whole entry, looked up): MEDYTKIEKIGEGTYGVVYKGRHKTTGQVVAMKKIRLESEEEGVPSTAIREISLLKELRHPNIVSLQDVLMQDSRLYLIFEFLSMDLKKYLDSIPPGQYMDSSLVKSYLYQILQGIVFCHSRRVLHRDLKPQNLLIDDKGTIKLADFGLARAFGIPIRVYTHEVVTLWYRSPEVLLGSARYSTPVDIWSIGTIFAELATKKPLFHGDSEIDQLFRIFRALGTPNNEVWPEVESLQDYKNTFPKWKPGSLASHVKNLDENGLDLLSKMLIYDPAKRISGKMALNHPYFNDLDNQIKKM
Sequence of Cyclin-dependent kinase 1/cyclin B1 (Homo sapiens) (P14635 whole entry, looked up): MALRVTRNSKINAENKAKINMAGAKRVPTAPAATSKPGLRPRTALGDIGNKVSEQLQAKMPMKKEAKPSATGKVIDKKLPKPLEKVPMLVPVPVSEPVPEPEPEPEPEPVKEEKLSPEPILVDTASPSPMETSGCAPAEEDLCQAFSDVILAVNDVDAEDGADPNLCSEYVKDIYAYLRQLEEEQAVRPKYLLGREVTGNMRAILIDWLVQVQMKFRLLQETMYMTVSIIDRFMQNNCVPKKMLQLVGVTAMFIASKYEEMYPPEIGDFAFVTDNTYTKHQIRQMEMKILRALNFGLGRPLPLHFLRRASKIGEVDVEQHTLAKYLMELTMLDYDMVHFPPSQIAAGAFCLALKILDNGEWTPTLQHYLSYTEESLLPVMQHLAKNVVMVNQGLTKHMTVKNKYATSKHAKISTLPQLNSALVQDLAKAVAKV
Sequence of Mitogen-activated protein kinase kinase kinase kinase 4 (Homo sapiens) (O95819 2-1239 limits assumed): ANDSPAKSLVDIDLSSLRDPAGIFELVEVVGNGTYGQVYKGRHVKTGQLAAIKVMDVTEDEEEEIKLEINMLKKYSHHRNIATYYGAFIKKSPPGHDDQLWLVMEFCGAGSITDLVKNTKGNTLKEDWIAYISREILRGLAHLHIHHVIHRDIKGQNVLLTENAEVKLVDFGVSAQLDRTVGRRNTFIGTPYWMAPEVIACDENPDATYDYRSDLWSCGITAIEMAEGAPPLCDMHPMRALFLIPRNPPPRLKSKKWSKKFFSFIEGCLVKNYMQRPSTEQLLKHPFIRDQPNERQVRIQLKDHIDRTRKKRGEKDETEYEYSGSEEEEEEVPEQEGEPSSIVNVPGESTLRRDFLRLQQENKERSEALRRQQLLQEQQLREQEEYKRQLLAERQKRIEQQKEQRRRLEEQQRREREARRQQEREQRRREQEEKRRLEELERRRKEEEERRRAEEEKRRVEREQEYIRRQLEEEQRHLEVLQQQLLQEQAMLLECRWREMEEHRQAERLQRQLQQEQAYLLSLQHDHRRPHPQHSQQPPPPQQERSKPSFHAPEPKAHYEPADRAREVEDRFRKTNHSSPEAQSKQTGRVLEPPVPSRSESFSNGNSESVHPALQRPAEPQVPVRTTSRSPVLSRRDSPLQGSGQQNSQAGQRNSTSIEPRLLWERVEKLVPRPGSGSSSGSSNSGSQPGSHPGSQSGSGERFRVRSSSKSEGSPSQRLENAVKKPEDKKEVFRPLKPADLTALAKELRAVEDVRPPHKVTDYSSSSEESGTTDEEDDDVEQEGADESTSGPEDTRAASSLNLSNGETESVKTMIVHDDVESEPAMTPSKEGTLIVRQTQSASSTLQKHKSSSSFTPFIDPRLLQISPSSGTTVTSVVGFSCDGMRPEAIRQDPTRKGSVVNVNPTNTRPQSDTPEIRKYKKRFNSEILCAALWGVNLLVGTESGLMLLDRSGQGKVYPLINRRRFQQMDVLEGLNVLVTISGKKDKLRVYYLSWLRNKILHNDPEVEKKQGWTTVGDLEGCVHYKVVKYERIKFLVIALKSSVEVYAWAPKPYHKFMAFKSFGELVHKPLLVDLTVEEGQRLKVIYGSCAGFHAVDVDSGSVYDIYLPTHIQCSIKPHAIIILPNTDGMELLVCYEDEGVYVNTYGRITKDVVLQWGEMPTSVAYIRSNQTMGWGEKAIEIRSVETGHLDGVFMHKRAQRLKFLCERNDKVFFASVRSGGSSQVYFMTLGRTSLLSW
Sequence of CDK9/cyclin T1 (O60563 whole entry, the tested form may be a part): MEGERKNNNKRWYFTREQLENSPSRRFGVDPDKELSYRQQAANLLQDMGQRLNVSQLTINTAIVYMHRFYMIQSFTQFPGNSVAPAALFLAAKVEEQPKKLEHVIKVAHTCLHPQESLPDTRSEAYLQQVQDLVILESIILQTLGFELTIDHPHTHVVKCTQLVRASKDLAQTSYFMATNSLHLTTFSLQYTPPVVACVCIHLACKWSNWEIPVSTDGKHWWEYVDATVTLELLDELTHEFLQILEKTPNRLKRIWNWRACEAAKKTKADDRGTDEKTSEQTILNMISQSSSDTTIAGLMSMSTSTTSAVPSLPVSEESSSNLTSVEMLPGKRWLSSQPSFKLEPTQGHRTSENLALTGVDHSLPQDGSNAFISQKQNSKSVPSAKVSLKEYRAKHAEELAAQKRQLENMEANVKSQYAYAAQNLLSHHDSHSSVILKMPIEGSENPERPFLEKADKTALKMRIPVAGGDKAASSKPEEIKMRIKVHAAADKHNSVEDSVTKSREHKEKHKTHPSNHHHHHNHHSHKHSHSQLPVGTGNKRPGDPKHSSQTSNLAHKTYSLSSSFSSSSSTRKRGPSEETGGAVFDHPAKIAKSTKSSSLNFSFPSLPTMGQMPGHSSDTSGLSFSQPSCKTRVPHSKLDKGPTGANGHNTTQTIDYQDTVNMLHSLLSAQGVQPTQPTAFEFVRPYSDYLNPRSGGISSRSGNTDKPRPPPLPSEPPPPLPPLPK
Sequence of CDK9/cyclin T1 (P50750 whole entry, the tested form may be a part): as the sequence (Q99J95 whole entry) above, with T17S, K37R, Q40K, K258N, F262Y counted along it

Consider `CC(=O)N[C@@H]1CCC[C@H](C(=O)Nc2cc(-c3cnn4c3CCCC4)c(Cl)cn2)C1`, for which the inhibition in [1] stood at 96%. For the same molecule, the Vd in data set [2] (dose 4.8 µmol/kg) was 0.65 L/kg. The Drug metabolism entry in [3] is given as “Metabolite_Detected”. For the same molecule, in data set [4], the clearance worked out at 65 mL/min/kg.

Turning to `CC(=O)N[C@@H]1CCC[C@H](C(=O)Nc2cc(-c3cnn4c3CC(C)(C)C4)c(F)cn2)C1`, the inhibition in data set [1] worked out at 100%. Besides, in [5], the koff is on record as 569 10^-6/s. In data set [2] (dose 2.4 µmol/kg), the Vd came out at 0.49 L/kg. Moreover, the figures for the Ratio IC50 in data set [6] and in data set [12] were 16 and 5, respectively. Moreover, the Drug metabolism entry in [7] and in data set [8] was “Metabolite_Detected” in each case. For the same molecule, the figures for the solubility thermodynamic in [9] and in data set [11] were 57 µg/mL (≈ 138 µM) and 30 µg/mL (≈ 72.6 µM), respectively. In data set [10], this molecule had a half-life at 0.25 h of 25.8 min.

Turning to `CC(=O)N[C@@H]1CCC[C@H](C(=O)Nc2cc(-c3cnn4c3CC(C)(C)C4)c(Cl)cn2)C1` [ZEMIRCICLIB], the inhibition in vivo at 5 mg/kg in data set [13] worked out at 65%. The results for the IC50 in data set [14] and in data set [21] were 2.8 µM and 8.62 µM, respectively. The inhibition result in [15] is “Active”. Also, the Drug metabolism result in [16] is on record as “Metabolite_Detected”. Besides, the Vd in [17] is 1.3 L/kg. The molecule further registered a clearance in data set [18] of 19 mL/min/kg. The inhibition in [19] was found to be 80%; in [20], 85%; in data set [22] it was 85%. Moreover, the results for the solubility thermodynamic in [9] and in data set [11] were 50 µg/mL (≈ 116 µM) and 17 µg/mL (≈ 39.5 µM), respectively.

By inhibition is commonly meant how much of the control response was suppressed. Usually clearance stands for the rate of elimination divided by the concentration. Usually half-life stands for the time needed for the level to fall by half in the phase considered. What is called IC50 is the concentration that gives 50% inhibition.
